A short description of data set [1]: Millimolar relaxivity r1p from T1 measurements in water, HSA 4% and human plasma (0.47T/20 MHz, 25° C.). It counts as physicochemical. As for the experimental part:
(§1) For all the compounds, longitudinal relaxation times (T1) at 20 MHz and at 25° C. on a mq20 Minispec instrument (Bruker Biospin, Germany) were measured in water, human serum albumin at physiological concentration and human plasma. Millimolar relaxivity r1p was thus determined from T1 measurements using the following equation: R^i1obs=1/T^i,J1obs=r^i,j1p·[Gd^3+]+1/T^j1 wherein R^i1obs is the observed relaxation […] of the selected contrast agent, T1obs is the observed longitudinal relaxation time of the solution and the indexes i and j relate to the contrast agent and to the medium respectively.

Data set [2] can be described thus: Stability at 37° C. of diazepine complexes determined through r1p measurement in different media. The format is physicochemical. The following applies: 0.47T, 25° C. As for the experimental part:
as §1
In its turn, this means that the present amphiphilic complexes can be administered and detected during MRI experiments allowing a clear and exhaustive analysis of the image over a suitable frame of time.

For the compound `C[NH2+]C[C@H](O)[C@@H](O)[C@H](O)[C@H](O)CO.C[NH2+]C[C@H](O)[C@@H](O)[C@H](O)[C@H](O)CO.O=C([O-])CN(CCN(CC(=O)[O-])CC(=O)[O-])CCN(CC(=O)[O-])C(COCc1ccccc1)C(=O)[O-].[Gd+3]` (stereo not drawn) [Gd-BOPTA, [[4-(carboxy)-5,8,11-tris(carboxymethyl)-1-phenyl-2-oxa-5,8,11-triazatridecan-13-oato(5-)]gadolinate(2-)]dimeglumine, reference compound], the results for the r1p in data set [1] (HSA 4%), in data set [1] (Human plasma) and in data set [1] (Water) were 8.9 mM⁻¹ s⁻¹, 8.7 mM⁻¹ s⁻¹ and 4.6 mM⁻¹ s⁻¹, respectively.
Turning to `CCCCCCCCN(CCCCCCCC)C(=O)C1CCC(C2(N(CC(=O)[O-])CC(=O)[O-])CN(CC(=O)[O-])CCN(CC(=O)[O-])C2)CC1.[Gd+3].[Na+]` [Compound 25b, [6-[Bis(carboxymethyl)amino]-6-[(1R,4R)-4-[(dioctylamino)-carbonyl]-cyclohexane-1-yl]tetrahydro-1H-1,4-diazepine-1,4(5H)diacetate(4-)]gadolinate(1-)]sodium], the r1p in data set [1] (HSA 4%) was 41.0 mM⁻¹ s⁻¹; in data set [1] (Human plasma), 39.1 mM⁻¹ s⁻¹; in data set [1] (Water), 14.6 mM⁻¹ s⁻¹.
For `CCCCCCCCCCN(CCCCCCCCCC)C(=O)C1CCC(C2(N(CC(=O)[O-])CC(=O)[O-])CN(CC(=O)[O-])CCN(CC(=O)[O-])C2)CC1.[Gd+3].[Na+]` [Compound 25a, [[6-[Bis(carboxymethyl)amino]-6-[(1R,4R)-4-[(didecylamino)-carbonyl]-cyclohexane-1-yl]tetrahydro-1H-1,4-diazepine-1,4(5H)diacetate(4-)]gadolinate(1-)]sodium], the “r1p (stability at 37° C.)” value in data set [2] (HSA 4%, 5 h) was 40.4 mM⁻¹ s⁻¹; in data set [2] (HSA 4%, T0), 45.8 mM⁻¹ s⁻¹; in data set [2] (Water, 5 h), 23.4 mM⁻¹ s⁻¹; in data set [2] (Water, T0) it was 23.9 mM⁻¹ s⁻¹. The r1p is 45.8 mM⁻¹ s⁻¹ in data set [1] (HSA 4%), 41.1 mM⁻¹ s⁻¹ in data set [1] (Human plasma) and 23.9 mM⁻¹ s⁻¹ in data set [1] (Water).
Take `CC(O)CN1CCN(CC(=O)[O-])CCN(CC(=O)[O-])CCN(CC(=O)[O-])CC1.[Gd+3]` (stereo not drawn) [Gd-HP-DO3A, [10-(2-hydroxyprop-1-yl)-1,4,7,10-tetraazacyclododecane-1,4,7-triacetato(3-)]gadolinium, reference compound]: the r1p in data set [1] (HSA 4%) amounted to 3.85 mM⁻¹ s⁻¹; in data set [1] (Human plasma) it was 4.80 mM⁻¹ s⁻¹; in data set [1] (Water) it was 3.32 mM⁻¹ s⁻¹.
Take `CCCCCCCCN(CCCCCCCC)C(=O)CCCCC1(N(CC(=O)[O-])CC(=O)[O-])CN(CC(=O)[O-])CCN(CC(=O)[O-])C1.[Gd+3].[Na+]` [Compound 12c, [[6-[Bis[(carboxy)methyl]amino]-6-[5-(dioctylamino)-5-oxopent-1-yl]-tetrahydro-1H-1,4-diazepine-1,4(5H)-diacetate(4-)]gadolinate(1-)]sodium]: the r1p in data set [1] (HSA 4%) is 54.2 mM⁻¹ s⁻¹; in data set [1] (Human plasma), 50.2 mM⁻¹ s⁻¹; in data set [1] (Water), 13.3 mM⁻¹ s⁻¹.
Consider `O=C([O-])CN1CCN(CC(=O)[O-])CCN([C@H](CO)[C@H](O)CO)CCN(CC(=O)[O-])CC1.[Gd+3]` [Gd-BT-DO3A, reference compound], for which the values for the r1p in data set [1] (HSA 4%), in data set [1] (Human plasma) and in data set [1] (Water) were 4.31 mM⁻¹ s⁻¹, 5.76 mM⁻¹ s⁻¹ and 3.75 mM⁻¹ s⁻¹, respectively.
As for `CCCCCCCCCC(=O)OC[C@H](COP(=O)([O-])OCCNC(=O)C1CCC(C2(N(CC(=O)[O-])CC(=O)[O-])CN(CC(=O)[O-])CCN(CC(=O)[O-])C2)CC1)OC(=O)CCCCCCCCC.[Gd+3].[Na+].[Na+]` (stereo partly drawn) [Compound 25c, [6-[-[Bis(carboxymethyl)amino]-6-[(1R,4R)-4-[[[(7R)-4-hydroxy-4-oxido-10-oxo-7-[(1-oxodecyl)oxy]-3,5,9-trioxa-4-phosphanonadec-1-yl]amino]-carbonyl]-cyclohexane-1-yl]tetrahydro-1H-1,4-diazepine-1,4(5H)-diacetate(5)]gadolinate(2-)]disodium], the r1p in data set [1] (HSA 4%) is 40.2 mM⁻¹ s⁻¹; in data set [1] (Human plasma), 43.0 mM⁻¹ s⁻¹; in data set [1] (Water), 14.7 mM⁻¹ s⁻¹.
Take `CCCCCCN(CCCCCC)C(=O)CCCCC1(N(CC(=O)[O-])CC(=O)[O-])CN(CC(=O)[O-])CCN(CC(=O)[O-])C1.[Gd+3].[Na+]` [Compound 12b, [[6-[Bis[(carboxy)methyl]amino]-6-[5-(dihexylamino)-5-oxopent-1-yl]-tetrahydro-1H-1,4-diazepine-1,4(5H)-diacetate(4-)]gadolinate(1-)]sodium]: the r1p was found to be 31.5 mM⁻¹ s⁻¹ in data set [1] (HSA 4%), 33.7 mM⁻¹ s⁻¹ in data set [1] (Human plasma) and 13.0 mM⁻¹ s⁻¹ in data set [1] (Water).
As to `CCCCCCCCCCCCN(CCCCCCCCCCCC)C(=O)CCCCC1(N(CC(=O)[O-])CC(=O)[O-])CN(CC(=O)[O-])CCN(CC(=O)[O-])C1.[Gd+3].[Na+]` [Compound 12e, [[6-[Bis[(carboxy)methyl]amino]-6-[5-(didodecylamino)-5-oxopent-1-yl]-tetrahydro-1H-1,4-diazepine-1,4(5H)-diacetate(4-)]gadolinate(1-)]sodium], the “r1p (stability at 37° C.)” value in data set [2] (Human plasma, 2 h) worked out at 35.2 mM⁻¹ s⁻¹; in data set [2] (Human plasma, 4 h), 32.3 mM⁻¹ s⁻¹; in data set [2] (Human plasma, T0), 36.2 mM⁻¹ s⁻¹; in data set [2] (Water, 2 h), 31.3 mM⁻¹ s⁻¹; in data set [2] (Water, 4 h), 30.4 mM⁻¹ s⁻¹; in data set [2] (Water, T0), 33.4 mM⁻¹ s⁻¹. In addition, the r1p in data set [1] (HSA 4%) was 40.4 mM⁻¹ s⁻¹; in data set [1] (Human plasma), 36.2 mM⁻¹ s⁻¹; in data set [1] (Water), 33.4 mM⁻¹ s⁻¹.
On to `CCCCCCCCCCN(CCCCCCCCCC)C(=O)CCCCC1(N(CC(=O)[O-])CC(=O)[O-])CN(CC(=O)[O-])CCN(CC(=O)[O-])C1.[Gd+3].[Na+]` [Compound 12d, [[6-[Bis[(carboxy)methyl]amino]-6-[5-(didecylamino)-5-oxopent-1-yl]-tetrahydro-1H-1,4-diazepine-1,4(5H)-diacetate(4-)]gadolinate(1-)]sodium], for which the “r1p (stability at 37° C.)” value in data set [2] (HSA 4%, 5 h) is 40.9 mM⁻¹ s⁻¹; in data set [2] (HSA 4%, T0), 46.7 mM⁻¹ s⁻¹; in data set [2] (Human plasma, 2 h) it was 39.2 mM⁻¹ s⁻¹; in data set [2] (Human plasma, 5 h), 34.7 mM⁻¹ s⁻¹; in data set [2] (Human plasma, T0), 45.2 mM⁻¹ s⁻¹; in data set [2] (Water, 2 h), 20.4 mM⁻¹ s⁻¹. Besides, the “r1p (stability at 37° C.)” value came to 15.8 mM⁻¹ s⁻¹ in data set [2] (Water, 5 h) and 23.5 mM⁻¹ s⁻¹ in data set [2] (Water, T0). Moreover, the r1p in data set [1] (HSA 4%) is 46.7 mM⁻¹ s⁻¹; in data set [1] (Human plasma), 45.2 mM⁻¹ s⁻¹; in data set [1] (Water), 23.5 mM⁻¹ s⁻¹.
With `C[NH2+]C[C@H](O)[C@@H](O)[C@H](O)[C@H](O)CO.O=C([O-])CN1CCN(CC(=O)[O-])CCN(CC(=O)[O-])CCN(CC(=O)[O-])CC1.[Gd+3]` [Gd-DOTA, [[1,4,7,10-tetraazacyclododecane-1,4,7,10-tetraacetato(4-)]gadolinate(1-)] meglumine, reference compound], the r1p came to 4.11 mM⁻¹ s⁻¹ in data set [1] (HSA 4%), 4.51 mM⁻¹ s⁻¹ in data set [1] (Human plasma) and 3.61 mM⁻¹ s⁻¹ in data set [1] (Water).
In the case of `CCCCCCCCCCCC(=O)OC[C@H](COP(=O)(O)OCCNC(=O)CCCCC1(N(CC(=O)[O-])CC(=O)[O-])CN(CC(=O)[O-])CCN(CC(=O)[O-])C1)OC(=O)CCCCCCCCCCC.[Gd+3].[Na+]` [Compound 9b], the “r1p (stability at 37° C.)” value in data set [2] (Human plasma, 1 h) came out at 30.9 mM⁻¹ s⁻¹; in data set [2] (Human plasma, 4 h), 28.3 mM⁻¹ s⁻¹; in data set [2] (Human plasma, T0), 32.5 mM⁻¹ s⁻¹; in data set [2] (Water, 1 h) it was 15.9 mM⁻¹ s⁻¹; in data set [2] (Water, 4 h) it was 15.5 mM⁻¹ s⁻¹; in data set [2] (Water, T0), 16.7 mM⁻¹ s⁻¹. Further, the r1p in data set [1] (HSA 4%) turned out to be 32.0 mM⁻¹ s⁻¹; in data set [1] (Human plasma) it was 32.5 mM⁻¹ s⁻¹; in data set [1] (Water) it was 16.7 mM⁻¹ s⁻¹.
